Assays:
[1] = test system: B16-F10 melanoma cells; assay: Topical calcipotriene plus IP DMXAA against subcutaneous B16-F10 melanoma in mice; assay type: in vivo, mouse (wild-type C57BL/6); conditions: for T cell (CD3+CD19−) infiltrate within the treated melanoma tumors / proliferation (Ki67+) of CD4+ and CD8+ tumor infiltrating T lymphocytes (melanoma tumors): flow cytometry at harvest; for cutaneous melanoma growth (tumor volume over time): three applications, topical calcipotriene 40 nmol, IP DMXAA 400 μg, compared to EtOH plus saline, p=0.019 for the combination
Experimental: (2A) Schematic diagram of the experimental protocol used to determine the efficacy of calcipotriene plus DMXAA as a localized immunotherapy for melanoma. B16-F10 melanoma cells are implanted subcutaneously into the flanks of wild-type C57BL/6 mice. When tumors reached 5 mm in diameter (day 14), the following treatments were applied three times: (a) 40 nmol calcipotriene in 20 microliters of 100% EtOH followed by IP injection of 400 μg DMXAA in 100 μl saline, (b) 40nmol calcipotriene in 20 microliters of 100% EtOH followed by IP injection of 100 μl saline, (c) 20 microliters of 100% EtOH followed by IP injection of 400 μg DMXAA in 100 μl saline, and (d) 20 microliter 100% EtOH followed by IP injection of 100 μl saline.
Melanoma Cells (B16-F10, ATCC, Manassas, VA) were injected subcutaneously into flanks of mice at 2×10^5 cells per 100 μl of 1:1 ratio of DMEM (Corning) at day 0. Flank regions of recipient mice were shaved prior to cancer cell injection. Topical treatment with calcipotriene or EtOH together with intraperitoneal (IP) injection of DMXAA (murine STING agonist, 5,6-Dimethylxanthenone-4-acetic Acid, ASA404, or Vadimezan) or normal saline were initiated when tumor sizes reached 5 mm in diameter. Mice were divided into 4 groups and were treated topically with either calcipotriene (40 nmol) or ethanol (EtOH) as carrier directly on the tumor sites. Following treatment of either calcipotriene or EtOH (control), mice were injected IP with either 400 μg DMXAA in 100 μl normal saline or normal saline alone (control). Calcipotriene/EtOH and DMXAA/saline treatments were re-applied two more times (FIG. 2A). Animals were monitored daily and tumors measured over time to determine the impact of treatments on melanoma growth. At harvest, tumors were weighed, and the tumor infiltrating T cells were profiled using flow cytometry.

[2] = test system: PyMTtg primary breast cancer cells; assay: Topical treatment of subcutaneous PyMTtg breast cancer tumors in mice; assay type: in vivo, mouse (wild-type C57BL/6); conditions: two topical applications; calcipotriene 80 nmol, imiquimod 5% cream; compared to EtOH plus control cream; p=0.011 for the combination
From the text: PyMTtg primary breast cancer cells are implanted subcutaneously into the inguinal regions of wild-type C57BL/6 mice. When tumors reached 5 mm in diameter (day 13), the following topical treatments applied to the tumor sites twice: (a) 80nmol calcipotriene in 20 microliters of 100% EtOH followed by 5% imiquimod cream, (b) 80nmol calcipotriene in 20 microliter 100% EtOH followed by moisturizing (control) cream, (c) 20 microliter 100% EtOH followed by 5% imiquimod cream, and (d) 20 microliter 100% EtOH followed by moisturizing (control) cream.
Breast cancer cells were obtained from PyMTtg mice that develop spontaneous breast cancer resembling luminal type of breast cancer in humans^12. Breast cancers of PyMTtg mice were harvested before the tumors reached 2 cm in diameter. Cancers were excised and dissociated into single cell suspension. Breast cancer cells were re-suspended at a concentration of 1×10^6 cells per 100 μl of 1:1 ratio of RPMI and Matrigel Membrane Matrix (Corning). Inguinal regions of recipient mice were shaved prior to cancer cell injection. 1×10^6 cells were injected subcutaneously at day 0. Topical treatments were applied when tumor sizes reached 5 mm in diameter. […] Animals were monitored daily and tumors measured over time to determine the impact of topical treatments on breast cancer growth. […]

SMILES | T cell (CD3+CD19−) infiltrate within the treated melanoma tumors [1] | proliferation (Ki67+) of CD4+ and CD8+ tumor infiltrating T lymphocytes (melanoma tumors) [1] | cutaneous melanoma growth (tumor volume over time) [1] | cutaneous breast tumor growth (tumor volume over time) [2]
Cc1ccc2c(=O)c3cccc(CC(=O)O)c3oc2c1C [DMXAA, 5,6-Dimethylxanthenone-4-acetic Acid] | absent | absent | did not show a significant impact on melanoma development | –
C=C1/C(=C\C=C2/CCC[C@]3(C)[C@@H]([C@H](C)/C=C/[C@@H](O)C4CC4)CC[C@@H]23)C[C@@H](O)C[C@@H]1O [calcipotriene] | absent | absent | showed efficacy in inhibiting melanoma growth | did not show a significant impact on breast cancer growth
CC(C)Cn1cnc2c(N)nc3ccccc3c21 [imiquimod] | – | – | – | did not show a significant impact on breast cancer growth
